Columns and labels:
Format in all cases: cell-based
[1] = tested on: HIV LTR; assay: Reactivation of the HIV LTR in latently infected J-Lat clones (GFP by flow cytometry); details: J-Lat clones, TNFα 20 ng/ml or PHA 1.5 μg/ml, 16 hours
Procedure: (§1) GFP expression was measured by flow cytometry. FIGS. 3B and 3C shown the percentage of cells positive for GFP (FIG. 3B) and the mean MFI of GFP (FIG. 3C) in latently infected cell lines, J-Lat clones 82, A72, A7, A2, and A1, at 16 hours after TNFα or PHA was added in the cultures in the presence of JQ1(+) or JQ1(−). […] GFP expression in cells was measured by flow cytometry and is indicated as percent of GFP+ cells in gated live cell populations. An average of 5 experiments is shown. * p<0.05, ** p<0.01, *** p<0.001. […] Average of 3 experiments is shown. * p<0.05. For FIG. 3F, J-Lat A2 and A72 cells were reactivated with TNFα (20 ng/ml) or HIV Tat protein (50 μg/ml) in the presence of JQ1(+) or JQ1(−) for 16-18 hours, and GFP expression in cells was measured by flow cytometry. One representative experiment is shown. In each dot plot, non-underlined numbers indicate percentage of GFP+ cells and underlined numbers indicate mean fluorescence of GFP (MFI).
(§2) Next, the effect of JQ1 on activation of the HIV LTR was tested using a latently infected Jurkat-derived cell clone, J-Lat clone A2. GFP expression in J-Lat clone A2 is induced upon reactivation with tumor necrosis factor-alpha (TNFα) or phytohaemagglutinin (PHA).
To further study the mechanism of how JQ1 drives reactivation of HIV latency, HIV latently infected T-cell lines—J-Lat clones A1, A2, A7, and A72—were utilized. The effect of JQ1(+) on reactivation of HIV latency in these cell lines were confirmed. TNFα (20 ng/ml) or PHA (1.5 μg/ml) was added to cultures of J-Lat clones in the presence of 1 μM JQ1(+) or JQ1(−). After 16 hours, expression of GFP was measured by flow cytometry. […] In the presence of HIV Tat, BET antagonism enhances Tat-driven transcription of the HIV LTR in J-Lat clones A2 and A72 (FIG. 3F; underlined numbers indicate mean GFP fluorescence, non-underlined numbers indicate percent of GFP+ cells). […] Displacement of Brd4 from chromatin by JQ1(+) may cause conformational change in the chromatin, exposing NF-κb binding sites, leading to increased HIV transcription and reactivation of latency.

[2] = tested on: HIV-1 NL43; assay: Viral integration in primary resting CD4 T-cells by Alu-PCR; details: NL43, 1 μM, T48 h
Procedure: To determine if JQ1(+) affects viral integration in primary resting CD4 T-cells, the cells were purified and infected with HIV-1 NL43 or mock control. The infected cells were then cultured in the presence of 1 μM of JQ1(+) or JQ1(−) for 48 hours. Cell pellets were collected at 0 hours and 48 hours after infection. DNA was isolated and the viral integration in resting CD4 T-cells was measured by Alu-PCR.

[3] = tested on: HIV-1 LTR promoter; assay: Activation of the HIV LTR in CEMss LTR-GFP reporter cells (GFP by flow cytometry); details: CEMss LTR-GFP cells, 8 μg/ml HIV-1 Tat alone
Procedure: CEMss LTR-GFP cells were infected with NL43 and cultured in the presence of the BET antagonists JQ1(+) (1 μM) or the control enantiomer JQ1(−). GFP expression in cells was examined by flow cytometry. A representative of three experiments is shown. FIG. 2B provides a graph showing GFP expression in cells when cultured with different amounts of JQ1, as determined by flow cytometry. 0.25 μM of JQ1(+) was sufficient to dramatically increase the expression of GFP in NL43 infected CEMss LTR-GFP cells. FIGS. 2C and 2D show percentage of GFP expression (FIG. 2C) and mean fluorescence of GFP (MFI; FIG. 2D) in CEMss LTR-GFP cells cultured in the presence of JQ1(+) or JQ1(−) (1 μM), and different amount of HIV-1 Tat. FIG. 2E provides dot plots of CEMss LTR-GFP cells were cultured with increasing amounts of HIV Tat (0, 8, 16 or 32 μg/ml) in the presence of JQ1(+) or JQ1(−) (1 μM) for 1 day. Non-underlined numbers indicate percentage of GFP and underlined numbers indicate mean fluorescence of GFP (MFI).
as §1
BET antagonists also drive activation of the HIV LTR. Specifically, the effects of JQ1 on transcription from the HIV LTR were tested. CEMss LTR-GFP cells (a reporter cell line stably transfected with GFP under the control of the HIV-1 LTR promoter) were infected with NL43 and cultured in the presence of BET antagonists or controls. GFP expression was measured at days 0, 1, 2, 3, and 6 post-infection. GFP expression was higher in the presence of the BET inhibitor (JQ1) compared to controls (FIG. 2A). Further, by varying the amount of JQ1, it was determined that 0.25 μM of JQ1(+) was sufficient to dramatically increase Tat-driven HIV-1 transcription (FIG. 2B). CEMss LTR-GFP cells were also cultured in the presence of JQ1(+) or JQ1(−) (1 μM) and different amount of HIV-1 Tat (0-32 μg/ml). […] FIG. 2E provides dot plots of the experiments.
as §2

For TNFα, the “GFP expression (reactivation of latently infected cells)” value [1] was “induced GFP expression”.

With `Cc1sc2c(c1C)C(c1ccc(Cl)cc1)=N[C@@H](CC(=O)OC(C)(C)C)c1nnc(C)n1-2` [JQ1(−)] the provirus/cell ([2]; Exp. 1, primary resting CD4 T-cells) was 0.527 ± 0.064 provirus/cell and the provirus/cell ([2]; Exp. 2, primary resting CD4 T-cells) was 0.400 ± 0.0009 provirus/cell.

B1: HIV-1 Tat: HIV Tat protein added to reporter cell cultures (protein, UniProt P04608 1-86, looked up)
Protein Tat: MEPVDPRLEPWKHPGSQPKTACTNCYCKKCCFHCQVCFITKALGISYGRKKRRQRRRAHQNSQTHQASLSKQPTSQPRGDPTGPKE
With B1 the “Expression of GFP (percentage)” value [3] was “activated”.
